The text below walks through data of patent publication US6699862B1, “Indolyl-2-phenyl bisamidines useful as antiproliferative agents” (Pfizer Inc., priority 1999, dated 2004).

One may read the melting point as the temperature, or range, at which the solid turns liquid. For the molecule `CC(C)OC(=O)C(C)Oc1cc(C(=N)N)ccc1-c1cc2ccc(C(=N)N)cc2[nH]1.Cl.Cl` (centres unmarked), the melting point turned out to be 240 °C.
In turn, `Cl.Cl.N=C(N)c1ccc(-c2cc3ccc(C(=N)N)cc3[nH]2)c(OCC(O)CO)c1` (centres unmarked) showed a melting point of more than 320 °C.
`CCCCOC(=O)Cc1c(-c2ccc(C(=N)N)cc2)[nH]c2cc(C(=N)N)ccc12.Cl.Cl`: the melting point is more than 270 °C.
Then `CCCOC(=O)Cc1c(-c2ccc(C(=N)N)cc2)[nH]c2cc(C(=N)N)ccc12.Cl.Cl`, with more than 270 °C; and `CC(C(=O)O)c1c(-c2ccc(C(=N)N)cc2)[nH]c2cc(C(=N)N)ccc12.Cl.Cl` (centres unmarked), with more than 260 °C.
Then `Cl.Cl.O=C(O)Cc1c(-c2ccc(C3=NCCN3)cc2)[nH]c2cc(C3=NCCN3)ccc12`, with more than 300 °C; and `CCOC(=O)Cc1c(-c2ccc(C3=NCCN3)cc2)[nH]c2cc(C3=NCCN3)ccc12.Cl.Cl`, with more than 300 °C.
The molecule `COC(=O)c1ccc(Cc2c(-c3ccc(C(=N)N)cc3)[nH]c3cc(C(=N)N)ccc23)cc1.Cl.Cl` registered a melting point of more than 250 °C.
Then `CNC(=N)c1ccc(-c2cc3ccc(C(=N)NC)cc3[nH]2)cc1.Cl.Cl`, with 282 °C.
The result for `COCCOC(=O)Cc1c(-c2ccc(C(=N)N)cc2)[nH]c2cc(C(=N)N)ccc12.Cl.Cl` reads more than 250 °C.
Consider `Cl.Cl.N=C(N)c1ccc(-c2[nH]c3cc(C(=N)N)ccc3c2CC(=O)OCCO)cc1`, for which the melting point was more than 250 °C.
Then `COC(=O)Cc1c(-c2ccc(C(=N)N)cc2O)[nH]c2cc(C(=N)N)ccc12.Cl.Cl`, with more than 250 °C; and `C=CCOC(=O)Cc1c(-c2ccc(C(=N)N)cc2)[nH]c2cc(C(=N)N)ccc12.Cl.Cl`, with more than 250 °C.
In the case of `CCOC(=O)CC(C)OC(=O)Cc1c(-c2ccc(C(=N)N)cc2)[nH]c2cc(C(=N)N)ccc12.Cl.Cl` (centres unmarked), the melting point was more than 250 °C.
Then `Cl.Cl.N#CCCOC(=O)Cc1c(-c2ccc(C(=N)N)cc2)[nH]c2cc(C(=N)N)ccc12`, with more than 250 °C; and `COC(=O)C=CCc1c(-c2ccc(C(=N)N)cc2)[nH]c2cc(C(=N)N)ccc12.Cl.Cl`, with more than 250 °C.
For `Cl.Cl.Fc1cc2cc(-c3ccc(C4=NCCN4)cc3)[nH]c2cc1C1=NCCN1`, the melting point is more than 250 °C.
`Cl.Cl.N=C(N)c1ccc(-c2[nH]c3cc(C(=N)N)ccc3c2Cc2cccc(OCC(N)=O)c2)cc1` had a melting point of more than 250 °C.
In the case of `COC(=O)C=Cc1ccc(Cc2c(-c3ccc(C(=N)N)cc3)[nH]c3cc(C(=N)N)ccc23)cc1.Cl.Cl`, the melting point is more than 250 °C.
Then `COC(=O)c1cccc(Cc2c(-c3ccc(C(=N)N)cc3)[nH]c3cc(C(=N)N)ccc23)c1.Cl.Cl`, with more than 250 °C; and `Cl.Cl.N=C(N)c1ccc(-c2[nH]c3cc(C(=N)N)ccc3c2CC(=O)OCc2ccccc2)cc1`, with more than 250 °C.
Then `Cl.Cl.N=C(N)c1ccc(-c2[nH]c3cc(C(=N)N)ccc3c2CC(=O)OCCCCCO)cc1`, with more than 250 °C; and `Cl.Cl.N=C(N)c1ccc(-c2[nH]c3cc(C(=N)N)ccc3c2CC(=O)OCCOCc2ccccc2)cc1`, with more than 250 °C.
The result for `COC(=O)c1cc(Cl)ccc1Cc1c(-c2ccc(C(=N)N)cc2)[nH]c2cc(C(=N)N)ccc12.Cl.Cl` reads more than 250 °C; that for `Cl.Cl.N=C(N)c1ccc(-c2[nH]c3cc(C(=N)N)ccc3c2CCNCC(=O)O)cc1`, more than 250 °C; that for `COC(=O)CNCCc1c(-c2ccc(C(=N)N)cc2)[nH]c2cc(C(=N)N)ccc12.Cl.Cl`, more than 250 °C.
In turn, `CCOC(=O)CNCCc1c(-c2ccc(C(=N)N)cc2)[nH]c2cc(C(=N)N)ccc12.Cl.Cl` had a melting point of more than 250 °C.
The result for `Cl.Cl.N=C(N)c1ccc(-c2cc3ccc(C(=N)N)cc3[nH]2)c(O)c1` reads more than 300 °C; that for `COC(=O)C(CO)NCCc1c(-c2ccc(C(=N)N)cc2)[nH]c2cc(C(=N)N)ccc12.Cl.Cl` (centres unmarked), more than 250 °C; that for `COC(=O)CC(NCCc1c(-c2ccc(C(=N)N)cc2)[nH]c2cc(C(=N)N)ccc12)C(=O)OC.Cl.Cl` (centres unmarked), more than 250 °C.
Then `Cl.Cl.N=C(N)c1ccc(-c2[nH]c3cc(C(=N)N)ccc3c2CC(=O)OCCOCCO)cc1`, with more than 250 °C.
Then `CCSCCOC(=O)Cc1c(-c2ccc(C(=N)N)cc2)[nH]c2cc(C(=N)N)ccc12.Cl.Cl`, with more than 250 °C; and `Cl.Cl.N=C(N)c1ccc(-c2[nH]c3cc(C(=N)N)ccc3c2CC(=O)OCCc2cccs2)cc1`, with more than 250 °C.
With `Cl.Cl.N=C(N)c1ccc(-c2[nH]c3cc(C(=N)N)ccc3c2CC(=O)OCC2CCCCO2)cc1` (centres unmarked), the melting point is more than 250 °C.
`COCCOCCOC(=O)Cc1c(-c2ccc(C(=N)N)cc2)[nH]c2cc(C(=N)N)ccc12.Cl.Cl` yielded a melting point of more than 250 °C.
Then `Cl.Cl.N=C(N)c1ccc(-c2[nH]c3cc(C(=N)N)ccc3c2CC(=O)OCC(O)CO)cc1` (centres unmarked), with more than 250 °C; and `COC(=O)C(C)NCCc1c(-c2ccc(C(=N)N)cc2)[nH]c2cc(C(=N)N)ccc12.Cl.Cl` (centres unmarked), with more than 250 °C.
Then `Cl.Cl.N=C(N)c1ccc(-c2[nH]c3cc(C(=N)N)ccc3c2CC(=O)O)cc1`, with more than 250 °C; and `COC(=O)C(NCCc1c(-c2ccc(C(=N)N)cc2)[nH]c2cc(C(=N)N)ccc12)C(C)C.Cl.Cl` (centres unmarked), with more than 250 °C.
The result for `COC(=O)C(Cc1ccccc1)NCCc1c(-c2ccc(C(=N)N)cc2)[nH]c2cc(C(=N)N)ccc12.Cl.Cl` (centres unmarked) reads more than 250 °C.
The molecule `CCCCS(=O)(=O)CCOC(=O)Cc1c(-c2ccc(C(=N)N)cc2)[nH]c2cc(C(=N)N)ccc12.Cl.Cl` gave a melting point of more than 250 °C.
Then `COC(=O)CCNCCc1c(-c2ccc(C(=N)N)cc2)[nH]c2cc(C(=N)N)ccc12.Cl.Cl`, with more than 250 °C; and `Cl.Cl.N=C(N)c1ccc(-c2[nH]c3cc(C(=N)N)ccc3c2CC(O)CO)cc1` (centres unmarked), with more than 250 °C; and `Cl.Cl.O=CCc1c(-c2ccc(C3=NCCN3)cc2)[nH]c2cc(C3=NCCN3)ccc12`, with more than 300 °C.
The result for `Cl.Cl.N=C(N)c1ccc(-c2[nH]c3cc(C(=N)N)ccc3c2NC(=O)CCC(=O)O)cc1` reads more than 250 °C.
The molecule `COC(=O)C(CCCNC(=O)OCc1ccccc1)NC(=O)Cc1c(-c2ccc(C(=N)N)cc2)[nH]c2cc(C(=N)N)ccc12.Cl.Cl` (centres unmarked) returned a melting point of 230 to 235 °C.
Molecule `COC(=O)C(CCCN)NC(=O)Cc1c(-c2ccc(C(=N)N)cc2)[nH]c2cc(C(=N)N)ccc12.Cl.Cl` (centres unmarked) had a melting point of more than 250 °C.
Then `Cl.Cl.N=C(N)c1ccc(-c2[nH]c3cc(C(=N)N)ccc3c2CC(=O)NCC(=O)NC(CCC(=O)OCc2ccccc2)C(=O)OCc2ccccc2)cc1` (centres unmarked), with 207 to 212 °C; and `COC(=O)C(CCCCN)NC(=O)Cc1c(-c2ccc(C(=N)N)cc2)[nH]c2cc(C(=N)N)ccc12.Cl.Cl` (centres unmarked), with more than 260 °C; and `COc1cc(C(=N)N)ccc1-c1cc2ccc(C(=N)N)cc2[nH]1.Cl.Cl`, with more than 250 °C.
